Data: patent US20250195530A1, “POLQ INHIBITORS” (ASTRAZENECA AB, priority 2022, published 2025)
Read-outs that look alike come from different tables or passages of the source.

System: DLD-1 BRCA2−/− cells
Experiment: Homologous recombination synthetic lethal inhibition of proliferation, DLD-1 BRCA2-/- (Cell Titre Glo 3D)
Format: cell-based
Conditions: for IC50: Homo sapiens
In short: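 Cells are seeded in RPMI 1640 (phenol red free, 10% FBS, GlutaMAX) onto pre-dosed compound (10 μM to 0.51 nM, three-fold). Plates are incubated at 37 °C, and medium plus compound are refreshed on day 6. Viability is read by CellTiter-Glo 3D at day 7 (DLD-1) or day 12 (DLD-1 BRCA2−/−), and the IC50 is fitted.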

[1] = DLD-1, first proliferation column, DLD-1 BRCA2-/-, read-out: POLQ PD Prolif Lumin (converted)
[2] = DLD-1, 288 h, DLD-1 BRCA2−/− cells, 12 days, read-out: POLQ PD Prolif Lumin BRCA2 −/− mean pIC50 (converted)
[3] = DLD-1, DLD-1 BRCA2 −/− cells, mean, read-out: POLQ PD Prolif Lumin BRCA2 −/− mean pIC50 (converted)

Q: Cc1ccc(C)c(Cn2c(-c3ccc(OCCC(C)C(=O)O)cc3Cl)nc3c(OC4(C)CC4)ncnc32)c1 (single isomer, unassigned) [Example T573, 4-(3-chloro-4-(9-(2,5-dimethylbenzyl)-6-(1-methylcyclopropoxy)-9H-purin-8-yl)phenoxy)-2-methylbutanoic acid] was tested. Which IC50 [1] did it give?
A: 501 nM

Q: For CC(CCOc1ccc(-c2nc3c(OC4(C)CC4)ncnc3n2Cc2ccccc2C2CC2)c(Cl)c1)C(=O)O (single isomer, unassigned) [Example T599, 4-(3-chloro-4-(9-(2-cyclopropylbenzyl)-6-(1-methylcyclopropoxy)-9H-purin-8-yl)phenoxy)-2-methylbutanoic acid], which IC50 [1] is on record?
A: 631 nM

Q: CC(CCOc1ccc(-c2nc3c(OC4(C)CC4)ncnc3n2Cc2ccccc2C2CC2)c(Cl)c1)C(=O)O (single isomer, unassigned) [Example T600, 4-(3-chloro-4-(9-(2-cyclopropylbenzyl)-6-(1-methylcyclopropoxy)-9H-purin-8-yl)phenoxy)-2-methylbutanoic acid] was tested. Which “POLQ PD Prolif Lumin” value (DLD-1 BRCA2-/-) did it give?
A: 6.3

Q: Which IC50 (DLD-1, DLD-1 BRCA2 −/−, mean, read-out: POLQ PD Prolif Lumin BRCA2 −/− mean pIC50 (converted)) does the source give for CC(COc1cccc(-c2nc3c(OC4(C)CC4)ncnc3n2Cc2cc(Cl)ccc2F)c1Cl)CC(=O)O (single isomer, unassigned) [Example U33, 4-(2-chloro-3-(9-(5-chloro-2-fluorobenzyl)-6-(1-methylcyclopropoxy)-9H-purin-8-yl)phenoxy)-3-methylbutanoic acid] here?
A: 15.8 nM

Q: Which “POLQ PD Prolif Lumin BRCA2 −/− mean pIC50” value (DLD-1 BRCA2 −/−, mean) does the source give for CC(COc1cccc(-c2nc3c(OC4(C)CC4)ncnc3n2Cc2cc(Cl)ccc2F)c1Cl)CC(=O)O (single isomer, unassigned) [Example U34, 4-(2-chloro-3-(9-(5-chloro-2-fluorobenzyl)-6-(1-methylcyclopropoxy)-9H-purin-8-yl)phenoxy)-3-methylbutanoic acid] here?
A: 7.5

Q: For COc1ccc(F)cc1Cn1c(-c2cccc(OCC(C)CC(=O)O)c2Cl)nc2c(OC3(C)CC3)ncnc21 (single isomer, unassigned) [Example U80, 4-(2-chloro-3-(9-(5-fluoro-2-methoxybenzyl)-6-(1-methylcyclopropoxy)-9H-purin-8-yl)phenoxy)-3-methylbutanoic acid], which “POLQ PD Prolif Lumin BRCA2 −/− mean pIC50” value (DLD-1 BRCA2 −/−, mean) is on record?
A: 8

Q: Which IC50 [2] does the source give for CC1NCCN(CCOc2ccc(-c3nc4c(OC5(C)CC5)ncnc4n3Cc3ccccc3)c(Cl)c2)C1=O (single isomer, unassigned; isomer 1) [Example R13, 1-(2-(4-(9-benzyl-6-(1-methylcyclopropoxy)-9H-purin-8-yl)-3-chlorophenoxy)ethyl)-3-methylpiperazin-2-one (Isomer 1)] here?
A: 200 nM

Q: Which “POLQ PD Prolif Lumin BRCA2 −/− mean pIC50” value (DLD-1 BRCA2−/− cells, 12 days) does the source give for CC1NCCN(CCOc2ccc(-c3nc4c(OC5(C)CC5)ncnc4n3Cc3ccccc3)c(Cl)c2)C1=O (single isomer, unassigned; isomer 2) [Example R14, 1-(2-(4-(9-benzyl-6-(1-methylcyclopropoxy)-9H-purin-8-yl)-3-chlorophenoxy)ethyl)-3-methylpiperazin-2-one (Isomer 2)] here?
A: 6.8

Q: With CC1(Oc2ncnc3c2nc(-c2ccc(OCCNC(=O)CO)cc2Cl)n3Cc2ccccc2)CC1 [Example D26, N-(2-(4-(9-benzyl-6-(1-methylcyclopropoxy)-9H-purin-8-yl)-3-chlorophenoxy)ethyl)-2-hydroxyacetamide] as the compound, how does the IC50 [2] read?
A: 100 nM

Q: With CC1(Oc2ncnc3c2nc(-c2ccc(OCCN4CCNCC4)cc2Cl)n3CCc2ccncc2)CC1 [Example L1, 8-(2-chloro-4-(2-(piperazin-1-yl)ethoxy)phenyl)-6-(1-methylcyclopropoxy)-9-(2-(pyridin-4-yl)ethyl)-9H-purine] as the compound, how does the IC50 [2] read?
A: > 10000 nM

Q: CC1(Oc2ncnc3c2nc(-c2ccc(OCCN4CCNC(C)(C)C4=O)cc2Cl)n3Cc2ccccc2)CC1 [Example R16, 1-(2-(4-(9-benzyl-6-(1-methylcyclopropoxy)-9H-purin-8-yl)-3-chlorophenoxy)ethyl)-3,3-dimethylpiperazin-2-one] was tested. Which IC50 [2] did it give?
A: 63.1 nM

Q: How did the IC50 [2] turn out when CC1(Oc2ncnc3c2nc(-c2ccc(OCCN4CCN[C@@H](CC#N)C4)cc2Cl)n3Cc2ccccc2)CC1 [Example R23, (S)-2-(4-(2-(4-(9-benzyl-6-(1-methylcyclopropoxy)-9H-purin-8-yl)-3-chlorophenoxy)ethyl)piperazin-2-yl)acetonitrile] was run?
A: 63.1 nM

Q: Cc1nnc(Cn2c(-c3ccc(CC(N)=O)cc3Cl)nc3c(OC4(C)CC4)ncnc32)s1 [Example T1, 2-(3-chloro-4-(9-((5-methyl-1,3,4-thiadiazol-2-yl)methyl)-6-(1-methylcyclopropoxy)-9H-purin-8-yl)phenyl)acetamide] was tested. Which IC50 [3] did it give?
A: > 10000 nM

Q: For Cc1nnc(Cn2c(-c3ccc(CC(N)=O)cc3Cl)nc3c(OC4(C)CC4)ncnc32)o1 [Example T2, 2-(3-chloro-4-(9-((5-methyl-1,3,4-oxadiazol-2-yl)methyl)-6-(1-methylcyclopropoxy)-9H-purin-8-yl)phenyl)acetamide], which IC50 [3] is on record?
A: > 10000 nM

Q: How did the IC50 [3] turn out when Cc1ccnc(Cn2c(-c3ccc(N)cc3Cl)nc3c(OC4(C)CC4)ncnc32)c1 [Example T3, 3-chloro-4-(6-(1-methylcyclopropoxy)-9-((4-methylpyridin-2-yl)methyl)-9H-purin-8-yl)aniline] was run?
A: 200 nM

Q: Cc1ncc(Cn2c(-c3ccc(CC(N)=O)cc3Cl)nc3c(OC4(C)CC4)ncnc32)s1 [Example T5, 2-(3-chloro-4-(6-(1-methylcyclopropoxy)-9-((2-methylthiazol-5-yl)methyl)-9H-purin-8-yl)phenyl)acetamide] was tested. Which IC50 [3] did it give?
A: > 7940 nM

Q: Cc1nc(Cn2c(-c3ccc(CC(N)=O)cc3Cl)nc3c(OC4(C)CC4)ncnc32)cs1 [Example T6, 2-(3-chloro-4-(6-(1-methylcyclopropoxy)-9-((2-methylthiazol-4-yl)methyl)-9H-purin-8-yl)phenyl)acetamide] was tested. Which IC50 [3] did it give?
A: 7940 nM

Q: How did the IC50 [3] turn out when CC1(Oc2ncnc3c2nc(-c2ccc(CC(N)=O)cc2Cl)n3CCc2nccs2)CC1 [Example T7, 2-(3-chloro-4-(6-(1-methylcyclopropoxy)-9-(2-(thiazol-2-yl)ethyl)-9H-purin-8-yl)phenyl)acetamide] was run?
A: > 10000 nM

Q: Which IC50 [3] does the source give for CNC(=O)COc1ccc(-c2nc3c(OC4(C)CC4)ncnc3n2Cc2cncs2)c(Cl)c1 [Example T8, 2-(3-chloro-4-(6-(1-methylcyclopropoxy)-9-(thiazol-5-ylmethyl)-9H-purin-8-yl)phenoxy)-N-methylacetamide] here?
A: 5010 nM

Q: Which IC50 [3] does the source give for CC1(Oc2ncnc3c2nc(-c2ccc(C(=O)O)cc2Cl)n3Cc2cccc(Cl)c2)CC1 [Example T11, 3-chloro-4-(9-(3-chlorobenzyl)-6-(1-methylcyclopropoxy)-9H-purin-8-yl)benzoic acid] here?
A: 794 nM

Q: For Cc1nnccc1Cn1c(-c2ccc(CC(N)=O)cc2Cl)nc2c(OC3(C)CC3)ncnc21 [Example T17, 2-(3-chloro-4-(6-(1-methylcyclopropoxy)-9-((3-methylpyridazin-4-yl)methyl)-9H-purin-8-yl)phenyl)acetamide], which IC50 [3] is on record?
A: > 10000 nM

Q: How did the IC50 [3] turn out when Cc1cnnc(Cn2c(-c3ccc(CC(N)=O)cc3Cl)nc3c(OC4(C)CC4)ncnc32)c1 [Example T18, 2-(3-chloro-4-(6-(1-methylcyclopropoxy)-9-((5-methylpyridazin-3-yl)methyl)-9H-purin-8-yl)phenyl)acetamide] was run?
A: > 10000 nM

Q: With Cc1cc(Cn2c(-c3ccc(CC(N)=O)cc3Cl)nc3c(OC4(C)CC4)ncnc32)ncn1 [Example T19, 2-(3-chloro-4-(6-(1-methylcyclopropoxy)-9-((6-methylpyrimidin-4-yl)methyl)-9H-purin-8-yl)phenyl)acetamide] as the compound, how does the IC50 [3] read?
A: > 10000 nM

Q: With CC1(Oc2ncnc3c2nc(-c2ccc(CC(N)=O)cc2Cl)n3Cc2nnc(C3CC3)s2)CC1 [Example T20, 2-(3-chloro-4-(9-((5-cyclopropyl-1,3,4-thiadiazol-2-yl)methyl)-6-(1-methylcyclopropoxy)-9H-purin-8-yl)phenyl)acetamide] as the compound, how does the IC50 [3] read?
A: 2510 nM

Q: CC1(Oc2ncnc3c2nc(-c2ccc(CC(N)=O)cc2Cl)n3Cc2nnc(C3CC3)o2)CC1 [Example T21, 2-(3-chloro-4-(9-((5-cyclopropyl-1,3,4-oxadiazol-2-yl)methyl)-6-(1-methylcyclopropoxy)-9H-purin-8-yl)phenyl)acetamide] was tested. Which IC50 [3] did it give?
A: > 10000 nM

Q: Which IC50 [3] does the source give for COc1cnnc(Cn2c(-c3ccc(CC(N)=O)cc3Cl)nc3c(OC4(C)CC4)ncnc32)c1 [Example T22, 2-(3-chloro-4-(9-((5-methoxypyridazin-3-yl)methyl)-6-(1-methylcyclopropoxy)-9H-purin-8-yl)phenyl)acetamide] here?
A: 3980 nM

Q: With CC1(Oc2ncnc3c2nc(-c2ccc(CC(N)=O)cc2Cl)n3Cc2nc(C3CC3)no2)CC1 [Example T23, 2-(3-chloro-4-(9-((3-cyclopropyl-1,2,4-oxadiazol-5-yl)methyl)-6-(1-methylcyclopropoxy)-9H-purin-8-yl)phenyl)acetamide] as the compound, how does the IC50 [3] read?
A: 1260 nM

Q: With Cc1nc(Cn2c(-c3ccc(CC(N)=O)cc3Cl)nc3c(OC4(C)CC4)ncnc32)sc1C [Example T24, 2-(3-chloro-4-(9-((4,5-dimethylthiazol-2-yl)methyl)-6-(1-methylcyclopropoxy)-9H-purin-8-yl)phenyl)acetamide] as the compound, how does the IC50 [3] read?
A: 794 nM

Q: Which IC50 [3] does the source give for Cc1nc(C)c(Cn2c(-c3ccc(CC(N)=O)cc3Cl)nc3c(OC4(C)CC4)ncnc32)s1 [Example T25, 2-(3-chloro-4-(9-((2,4-dimethylthiazol-5-yl)methyl)-6-(1-methylcyclopropoxy)-9H-purin-8-yl)phenyl)acetamide] here?
A: 1000 nM

Q: Cc1ncsc1CCn1c(-c2ccc(CC(N)=O)cc2Cl)nc2c(OC3(C)CC3)ncnc21 [Example T26, 2-(3-chloro-4-(6-(1-methylcyclopropoxy)-9-(2-(4-methylthiazol-5-yl)ethyl)-9H-purin-8-yl)phenyl)acetamide] was tested. Which IC50 [3] did it give?
A: 316 nM
